Source: paper PMC5595947 (British Journal of Clinical Pharmacology, 2017)
Like-named read-outs stand apart in the source and are kept apart here. Blank lines part the entries; values can stand above or below the compound they belong to.

Experiments:
CYP1A2 [1] = type: in vitro ADME, human
CYP2B6 = type: in vitro ADME, human
CYP2C19 [2] = type: in vitro ADME, human
CYP2D6 [3] = target: T1, CYP2D6 (Homo sapiens, UniProt P10635); test: CYP2D6 inhibition in human liver microsomes; type: in vitro ADME
CYP2C9 [4] = target: CYP2C9 (Homo sapiens, UniProt P11712); conditions: HLM; TV‐45065 0.05 to 50 μmol l^–1; printed CYP2C8/9
CYP2C8 [5] = target: T2, CYP2C8 (Homo sapiens, UniProt P10632); conditions: HLM; TV‐45065 0.05 to 50 μmol l^–1; printed CYP2C8/9
T2 sequence (P10632 1-490): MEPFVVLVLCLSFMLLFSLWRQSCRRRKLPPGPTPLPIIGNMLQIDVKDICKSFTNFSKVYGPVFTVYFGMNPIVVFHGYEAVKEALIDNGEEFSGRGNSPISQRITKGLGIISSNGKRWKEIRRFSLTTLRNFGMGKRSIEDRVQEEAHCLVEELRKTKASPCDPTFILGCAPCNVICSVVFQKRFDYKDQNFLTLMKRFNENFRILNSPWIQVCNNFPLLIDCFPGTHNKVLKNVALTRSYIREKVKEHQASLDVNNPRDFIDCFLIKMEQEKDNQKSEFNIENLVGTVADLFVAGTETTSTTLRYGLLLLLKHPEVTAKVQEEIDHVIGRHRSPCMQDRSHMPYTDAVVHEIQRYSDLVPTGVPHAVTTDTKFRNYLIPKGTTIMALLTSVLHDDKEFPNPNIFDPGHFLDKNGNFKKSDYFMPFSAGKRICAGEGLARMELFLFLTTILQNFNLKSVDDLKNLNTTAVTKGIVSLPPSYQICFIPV

CYP3A4/5 = CYP3A4/5 induction in cultured human hepatocytes; type: in vitro ADME
CYP2C9 [6] = type: in vitro ADME, human
CYP2C19 [7] = target: CYP2C19 (Homo sapiens, UniProt P33261); conditions: HLM; TV‐45065 0.05 to 50 μmol l^–1
CYP1A2 [8] = target: T3, CYP1A2 (Homo sapiens, UniProt P05177); conditions: HLM; TV‐45065 0.05 to 50 μmol l^–1
T3 sequence (P05177 1-516): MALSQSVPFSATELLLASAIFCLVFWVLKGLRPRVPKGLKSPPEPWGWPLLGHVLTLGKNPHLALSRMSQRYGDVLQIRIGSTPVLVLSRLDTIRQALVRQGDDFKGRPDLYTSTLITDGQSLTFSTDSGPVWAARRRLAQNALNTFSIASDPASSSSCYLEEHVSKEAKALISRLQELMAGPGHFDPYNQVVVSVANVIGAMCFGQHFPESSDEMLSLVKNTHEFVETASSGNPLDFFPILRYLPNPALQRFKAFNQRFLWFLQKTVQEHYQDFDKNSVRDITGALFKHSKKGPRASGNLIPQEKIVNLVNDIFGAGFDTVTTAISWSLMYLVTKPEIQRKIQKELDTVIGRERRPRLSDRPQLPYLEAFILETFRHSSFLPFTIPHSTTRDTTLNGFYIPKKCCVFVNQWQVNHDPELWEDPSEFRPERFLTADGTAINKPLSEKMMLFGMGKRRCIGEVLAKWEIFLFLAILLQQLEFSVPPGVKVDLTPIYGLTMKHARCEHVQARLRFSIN

[9] = cited from earlier work; for elimination half‐life: metabolite
CYP3A4 = CYP3A4 (Homo sapiens, UniProt P08684); test: CYP3A4 inhibition in human liver microsomes; type: in vitro ADME; conditions: HLM; TV‐45065 0.05 to 50 μmol l^–1
CYP2C8 [10] = type: in vitro ADME, human
CYP2D6 [11] = target: T1, CYP2D6
CYP2D6 [12] = target: T1, CYP2D6; test: clinical; conditions: plasma, 100 mg
clinical = conditions: human, plasma, oral, 45 mg
[13] = not given; remark: listed apart in the source
[14] = Safety and adverse events in the phase‐1 study in healthy subjects; type: in vivo, human
CYP2D6 [15] = target: T1, CYP2D6; conditions: up to 100 μmol l^–1 pridopidine
[16] = up to 50 μmol l^–1 TV‐45065, three consecutive days
[17] = caused by steady‐state pridopidine (discussion)
[18] = metoprolol coadministered with pridopidine vs alone
[19] = up to 100 μmol l^–1 pridopidine, 3 days, three hepatocyte cultures
[20] = up to 100 μmol l^–1 pridopidine, cultured human hepatocytes

T1 sequence (P10635 whole entry): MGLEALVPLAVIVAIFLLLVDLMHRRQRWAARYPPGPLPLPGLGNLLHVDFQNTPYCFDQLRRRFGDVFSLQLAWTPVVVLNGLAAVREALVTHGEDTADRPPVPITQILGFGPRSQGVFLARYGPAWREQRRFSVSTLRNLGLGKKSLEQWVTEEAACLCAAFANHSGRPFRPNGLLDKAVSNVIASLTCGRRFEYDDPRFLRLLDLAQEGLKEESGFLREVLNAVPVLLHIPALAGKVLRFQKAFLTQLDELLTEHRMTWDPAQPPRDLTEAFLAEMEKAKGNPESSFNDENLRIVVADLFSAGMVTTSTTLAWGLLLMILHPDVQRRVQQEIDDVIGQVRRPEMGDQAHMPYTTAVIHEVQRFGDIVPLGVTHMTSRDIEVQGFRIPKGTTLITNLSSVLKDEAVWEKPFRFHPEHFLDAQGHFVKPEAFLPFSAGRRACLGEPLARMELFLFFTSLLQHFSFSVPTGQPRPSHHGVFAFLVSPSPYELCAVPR
Sequence of CYP2C19 (Homo sapiens, UniProt P33261) (P33261 whole entry): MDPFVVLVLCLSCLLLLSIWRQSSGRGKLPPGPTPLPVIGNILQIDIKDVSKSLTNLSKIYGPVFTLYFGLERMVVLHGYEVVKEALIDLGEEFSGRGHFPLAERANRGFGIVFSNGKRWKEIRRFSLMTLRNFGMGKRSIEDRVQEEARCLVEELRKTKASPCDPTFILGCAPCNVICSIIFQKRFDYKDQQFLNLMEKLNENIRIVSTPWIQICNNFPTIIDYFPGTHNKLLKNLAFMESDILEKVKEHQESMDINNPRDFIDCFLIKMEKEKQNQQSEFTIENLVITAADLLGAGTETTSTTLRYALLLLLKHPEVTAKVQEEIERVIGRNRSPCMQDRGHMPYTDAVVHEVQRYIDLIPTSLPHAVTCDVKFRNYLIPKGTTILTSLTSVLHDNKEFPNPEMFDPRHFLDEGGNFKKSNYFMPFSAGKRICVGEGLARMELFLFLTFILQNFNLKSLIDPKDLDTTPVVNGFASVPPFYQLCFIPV
Sequence of CYP3A4 (P08684 2-503): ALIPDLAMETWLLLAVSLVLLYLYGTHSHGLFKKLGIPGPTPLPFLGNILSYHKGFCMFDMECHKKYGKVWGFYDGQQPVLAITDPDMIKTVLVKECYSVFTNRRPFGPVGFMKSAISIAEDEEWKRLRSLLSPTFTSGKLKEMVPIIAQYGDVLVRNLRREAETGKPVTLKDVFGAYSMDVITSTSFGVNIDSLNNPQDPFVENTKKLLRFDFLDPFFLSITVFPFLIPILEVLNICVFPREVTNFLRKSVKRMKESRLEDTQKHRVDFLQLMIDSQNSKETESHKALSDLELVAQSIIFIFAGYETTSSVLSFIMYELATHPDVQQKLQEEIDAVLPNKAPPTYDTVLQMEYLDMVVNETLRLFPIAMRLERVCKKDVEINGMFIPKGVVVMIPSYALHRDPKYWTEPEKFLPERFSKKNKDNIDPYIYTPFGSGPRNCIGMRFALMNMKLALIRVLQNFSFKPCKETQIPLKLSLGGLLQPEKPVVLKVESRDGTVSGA
Sequence of CYP2C9 (Homo sapiens, UniProt P11712) (P11712 whole entry): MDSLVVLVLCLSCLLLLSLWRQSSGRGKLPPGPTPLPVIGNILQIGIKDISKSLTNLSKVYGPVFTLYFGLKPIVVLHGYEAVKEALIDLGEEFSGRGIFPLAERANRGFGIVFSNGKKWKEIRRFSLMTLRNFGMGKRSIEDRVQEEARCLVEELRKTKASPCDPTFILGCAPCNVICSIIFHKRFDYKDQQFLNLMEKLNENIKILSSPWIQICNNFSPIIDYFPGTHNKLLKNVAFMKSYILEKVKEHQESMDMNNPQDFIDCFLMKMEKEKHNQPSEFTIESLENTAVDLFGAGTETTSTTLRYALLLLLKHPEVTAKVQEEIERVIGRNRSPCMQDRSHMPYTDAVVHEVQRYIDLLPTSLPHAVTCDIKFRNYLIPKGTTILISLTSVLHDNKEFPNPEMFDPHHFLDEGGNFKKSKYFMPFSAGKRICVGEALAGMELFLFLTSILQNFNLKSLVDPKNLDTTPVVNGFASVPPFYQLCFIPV

CYP1A2 induction, effectiveness relative to positive control CYP inducer (CYP1A2 [1]; [16]): ≤ 20%
increase in CYP1A2 activity or mRNA expression (on average) (CYP1A2 [1]; [16]): ≤ 2.0 fold
CYP2B6 induction, effectiveness relative to positive control CYP inducer (CYP2B6; [16]): ≤ 20%
increase in CYP2B6 activity or mRNA expression (on average) (CYP2B6; [16]): ≤ 2.0 fold
CYP2C19 induction, effectiveness relative to positive control CYP inducer (CYP2C19 [2]; [16]): ≤ 20%
increase in CYP2C19 activity or mRNA expression (on average) (CYP2C19 [2]; [16]): ≤ 2.0 fold
direct inhibition of CYP2D6 (CYP2D6 [3]; HLM, TV‐45065 0.05 to 50 μmol l^–1): did not show any direct inhibition
IC50 (CYP2D6 [3]; read-out: IC50, time‐/metabolism‐dependent inhibition of CYP2D6, HLM, TV‐45065 0.05 to 50 μmol l^–1): > 50 µM
Cmax and AUC, fed vs fasted states (metabolite after single 90‐mg pridopidine dose, data not shown): similar
direct inhibition of CYP2C9 (CYP2C9 [4]): did not show any direct inhibition
direct inhibition of CYP2C8 (CYP2C8 [5]): did not show any direct inhibition
CYP3A4/5 induction, effectiveness relative to positive control CYP inducer (CYP3A4/5; [16]): ≤ 20%
increase in CYP3A4/5 activity or mRNA expression (on average) (CYP3A4/5; [16]): ≤ 2.0 fold
CYP2C9 induction, effectiveness relative to positive control CYP inducer (CYP2C9 [6]; [16]): ≤ 20%
increase in CYP2C9 activity or mRNA expression (on average) (CYP2C9 [6]; [16]): ≤ 2.0 fold
direct inhibition of CYP2C19 (CYP2C19 [7]): did not show any direct inhibition
direct inhibition of CYP1A2 (CYP1A2 [8]): did not show any direct inhibition
direct inhibition of CYP3A4 (CYP3A4): did not show any direct inhibition
CYP2C8 induction, effectiveness relative to positive control CYP inducer (CYP2C8 [10]; [16]): ≤ 20%
increase in CYP2C8 activity or mRNA expression (on average) (CYP2C8 [10]; [16]): ≤ 2.0 fold
Structure (SMILES): CS(=O)(=O)c1cccc(C2CCNCC2)c1 [TV‐45065]
elimination half‐life ([9]; repeated administration, extensive metabolizers): 17 h
elimination half‐life ([9]; repeated administration, poor metabolizers): 19 h
elimination half‐life ([9]; single dose administration, extensive metabolizers): approximately 8 h
elimination half‐life ([9]; single dose administration, poor metabolizers): ~32 h

increase in metoprolol AUC (CYP2D6 [11]; [17]): up to 5 fold
increase in metoprolol peak concentrations (CYP2D6 [11]; [17]): up to 3 fold
t½, mean (SD) (CYP2D6 [11]; metoprolol 100 mg single oral dose alone): 3.69 (0.83) h
increase in mean AUC0–∞ (CYP2D6 [11]; [18]): 5.1 fold
increase in mean Cmax (CYP2D6 [11]; [18]): 3.5 fold
range of tmax (CYP2D6 [11]; metoprolol during coadministration with pridopidine): 1 to 4 h
Tmax (CYP2D6 [12]; oral): 0.75 to 2 h
AUC(0-inf) (CYP2D6 [12]; po): 460 ng·h/mL
AUC(0-t) (CYP2D6 [12]; po): 447 ng·h/mL
Cmax (CYP2D6 [12]; po): 84 ng/mL
Tmax (CYP2D6 [12]; po): ~2 h
Structure (SMILES): COCCc1ccc(OCC(O)CNC(C)C)cc1 (stereo not shown) [metoprolol]

change in CYP1A2 mRNA levels (CYP1A2 [1]; [19]): < 2 fold
change in CYP1A2 activity (CYP1A2 [1]; [20]): < 2 fold
change in CYP2B6 mRNA levels (CYP2B6; [19]): < 2 fold
change in CYP2B6 activity (CYP2B6; [20]): < 2 fold
Cmax (clinical): 525 ng/mL
change in CYP2C19 mRNA levels (CYP2C19 [2]; [19]): < 2 fold
change in CYP2C19 activity (CYP2C19 [2]; [20]): < 2 fold
effect of heat inactivation of FMO on CYP2D6 MDI extent (CYP2D6 [3]; HLM heat treated (50°C, 2 min)): did not affect
IC50 (CYP2D6 [3]; IC50, direct inhibition (no preincubation), HLM, preincubation time row 2 h): 39 µM
IC50 (CYP2D6 [3]; IC50, direct inhibition (no preincubation), HLM, preincubation time row 3 h): 39 µM
IC50 (CYP2D6 [3]; IC50, direct inhibition (no preincubation), HLM, preincubation time row 4 h): 39 µM
reversibility of metabolism‐dependent inhibition of CYP2D6 (CYP2D6 [3]; microsomal re‐isolation or addition of potassium ferricyanide): not reversed
difference in median tmax, fed state in comparison to fasted state (single 90‐mg dose): 1.5 h
change in CYP3A4 mRNA levels (CYP3A4/5; [19]): < 2 fold
Cmax,ss, mean (SD) ([13]; 45 mg BID for 7 days, PM (6–18 h), metoprolol given with PM dose): 727.30 (152.38) ng ml^–1
Cav,ss, mean (SD) ([13]; 45 mg BID, AM (0–6 h)): 407.29 (90.82)
AUCss, mean (SD) ([13]; 45 mg BID, AM (0–6 h), AUC0–6): 2443.75 (544.95) ng h ml^–1
Cav,ss, mean (SD) ([13]; 45 mg BID, PM (6–18 h)): 447.33 (92.19)
AUCss, mean (SD) ([13]; 45 mg BID, PM (6–18 h), AUC0–18 following the afternoon dose): 8052.03 (1659.34) ng h ml^–1
time of BID dosing after which steady state was reached ([13]; 45 mg BID, morning trough plasma levels): 7 days
decrease in CYP2D6 activity compared to vehicle control (CYP2D6 [15]; hepatocyte cultures, vehicle 0.1% DMSO): up to 64.2%
change in CYP2D6 mRNA levels (CYP2D6 [15]; 3 days, three hepatocyte cultures): < 2 fold
change in CYP2C9 mRNA levels (CYP2C9 [6]; [19]): < 2 fold
change in CYP2C9 activity (CYP2C9 [6]; [20]): < 2 fold
change in CYP2C8 mRNA levels (CYP2C8 [10]; [19]): < 2 fold
change in CYP2C8 activity (CYP2C8 [10]; [20]): < 2 fold
Structure (SMILES): CCCN1CCC(c2cccc(S(C)(=O)=O)c2)CC1 [pridopidine, 4‐[3‐(methylsulfonyl)phenyl]‐1‐propylpidperidine]
amnestic aphasia, subjects ([14]; following BID administration, two subjects): 9.1%
increase in pulse rate ([14]; pridopidine 45 mg BID): up to 12 beats min^–1
time (tmax) to reach Cmax ([9]; oral administration): roughly 2 h
mean peak concentration in plasma ([9]; single 45‐mg dose): 303 ng ml^–1
pridopidine exposure ([9]; single dose, extensive metabolizers): 3782 ng h ml^–1
pridopidine exposure ([9]; single dose, poor metabolizers): 11 192 ng h ml^–1
mean peak concentration in plasma ([9]; steady state following 14 days of 45 mg BID dosing): 620 ng ml^–1
pridopidine exposure ([9]; steady state, extensive metabolizers): 9338 ng h ml^–1
pridopidine exposure ([9]; steady state, poor metabolizers): 12 080 ng ml^–1
